Results taken from patent publication US20250333442A1, “NOVEL CELL-PERMEABLE PEPTIDE AND USE THEREOF” (AJOU UNIVERSITY INDUSTRY-ACADEMIC COOPERATION FOUNDATION, priority 2021, published 2025).

Columns and labels:
peritoneal macrophages = experiment: Peritoneal macrophage permeability by confocal microscopy; type: cell-based; details: 1 μg/mL fluorescent-labeled peptide, ICR mouse peritoneal macrophages, culture times 1, 4 and 24 hours
Method: To determine the cell permeability of F1 peptides, 1 μg/mL of fluorescent-labeled F1 and F2 peptides was treated to cultures of peritoneal macrophages isolated from 4-week-old ICR mice, followed by culture for 24 hours. Afterwards, intracellular fluorescence expression over culture times (1, 4 and 24 hours) was observed by confocal microscopy.

splenocytes [1] = experiment: Splenocyte permeability by confocal microscopy; type: cell-based; details: 1 μg/mL fluorescent-labeled peptide, ICR mouse splenocytes, culture times 1, 4 and 24 hours
Method: To determine the cell permeability of F1 peptides, 1 μg/mL of fluorescent-labeled F1 and F2 peptides were treated to cultures of splenocytes isolated from 4-week-old ICR mice, followed by culture for 24 hours. Afterwards, intracellular fluorescence expression over culture times (1, 4 and 24 hours) was observed by confocal microscopy. The untreated group with no peptide treatment involved was used as a control, alongside with a GFP peptide ([…]) treated group without cell permeability and a scramble D treated group (negative control).

lymph node cells = experiment: Cell permeability via flow cytometry, lymph node cells; type: cell-based, mouse; details: for positive cell frequency (of entire cells): 1 μg/mL
Method: (§1) To determine whether the F1 peptide has entered the cell by penetrating the plasma membrane, splenocytes and lymph node cells were isolated from 4-week-old ICR mice, cultured for 1 hour, treated with 1 μg/mL of fluorescent-labeled F1 and F2 peptides, respectively, and then cultured for 48 hours. Flow cytometry was then used to analyze a frequency of fluorescent-labeled cells over culture time (1, 4, 24, and 48 hours) to determine the frequency of cells into which the peptide moved.

skin (epidermis) tissues = experiment: Skin tissue permeability by confocal microscopy; type: in vivo, mouse; details: for fluorescence expression in tissues: 1 μg/mL applied to mouse leg skin with cotton swab, cryosection; for difference in fluorescence expression with or without scratches: normal versus needle-scratched skin, 1 μg/mL, 1˜2 hours
Method: To identify the skin tissue permeability of the F1 peptide, the left leg of 4-week-old ICR mice was left unscratched, and the right leg was scratched with a needle. Afterwards, 1 μg/mL of fluorescent-labeled F1 and F2 peptides was applied to both legs with cotton swabs respectively, and after 1˜2 hours, skin (epidermis) tissues were collected, cryosectioned, and observed under confocal microscopy.

splenocytes [2] = experiment: Cell permeability via flow cytometry, splenocytes; type: cell-based, mouse; details: culture times 1, 4, 24 and 48 hours
Method: as §1

splenocytes [3] = experiment: Cell permeability of peptides with SEQ ID NOS: 22 to 30 via flow cytometry; type: cell-based, mouse; details: splenocytes of 8-week-old ICR mice, 1 μg/mL, 24 and 48 hours
Method: To determine whether the F1 peptide enables penetration into cells even if a peptide without cell permeability is linked in the middle of any amino acid sequence, splenocytes were isolated from ICR 8-week-old mice and cultured for 1 hour. Afterwards, 1 μg/mL of fluorescent-labeled peptides (SEQ ID NOS: 22 to 30) was treated to cells respectively, followed by culture for 48 hours. Afterwards, flow cytometry was used to analyze the frequency of fluorescent-labeled cells over the culture time (24 and 48 hours) to determine the frequency of cells into which the peptide moved. […] A total of 4 mice were used, with the number of mice per experimental group (Group) set to 2 and the experiment repeated twice.

[4] = tissue collected after 1˜2 hours, confocal microscopy

Row | Substance | intracellular fluorescence expression (peritoneal macrophages) | intracellular fluorescence expression (splenocytes [1]) | fluorescence expression in tissues (skin (epidermis) tissues; [4]) | difference in fluorescence expression with or without scratches (skin (epidermis) tissues) | other results
1 | GCCGEIV [Peptide F1] | showed fluorescence expression in peritoneal macrophages | showed fluorescence expression in splenocytes | showed fluorescence expression in tissues | no significant difference | positive cell frequency (of entire cells) (lymph node cells; over 4 hours): about 40%
2 | HKFSVSGEGEGDATC [GFP peptide, GFP peptide without cell permeability, used as control, reference compound] | – | – | – | – | intracellular fluorescence expression (splenocytes [2]): intracellular fluorescence expression was not observed; intracellular fluorescence expression (lymph node cells; culture times 1, 4, 24 and 48 hours): intracellular fluorescence expression was not observed
3 | GCDDDDDDDDCGEIV [Peptide F2] | showed fluorescence expression in peritoneal macrophages | showed fluorescence expression in splenocytes | showed fluorescence expression in tissues | no significant difference | positive cell frequency (of entire cells) (lymph node cells; over 48 hours): about 60%; fluorescence expression in hair follicles (skin (epidermis) tissues; 1 μg/mL applied to mouse leg skin, tissue collected after 1˜2 hours, confocal microscopy): strong fluorescence expression especially in hair follicles
4 | GCCGEIVDDDDDDDD [Peptide F1D8] | – | – | – | – | degree of penetration of the D peptide into the cell compared with R8D control (splenocytes [3]): superior to that of the R8 peptide; penetration of the DDDDDDDD peptide inside the cell compared with cTATD control (splenocytes [3]): at a level similar to that of the cTAT peptide
